Two compounds from patent US20160015893A1, “DIRECT PRESSURE-MEDIATED INTRA-BONE DELIVERY SYSTEM FOR CELLULAR THERAPEUTICS” (The United States of America, as represented by the …, priority 2013, published 2016) can be followed below.

Data set [1] can be described thus: CT imaging of IB contrast injection (marrow flow, venous drainage, leakage). Format: in vivo, domestic swine (Sus scrofa domesticus). As to the method: To evaluate flow through the bone marrow cavity, abdominal vessels were identified using iopamidol-370 contrast injected into the distal abdominal aorta via a 5Fr Glidecath (Terumo Medical Corporation, Somerset, N.J.) inserted in the internal carotid artery. To evaluate the anatomy of the veins, iopamidol-370 contrast was injected IB under anesthesia (boluses of 5 or 10 ml at rates of 0.1 to 2.5 ml/s) while scanning with 320-row detector CT (Aquilion ONE™, Toshiba Medical, Japan). Pulmonary artery, carotid artery and intra-marrow pressures were monitored and recorded continuously both during and after injection of contrast media. In select animals, vascular occluders (In Vivo Metric, Healdsburg, Calif.) were placed around the terminal branches of the abdominal aorta to selectively control flow through the internal or external iliac arteries, and around the iliac veins to control venous drainage from the pelvis. […]
To evaluate flow through the marrow and venous drainage, direct intra-bone injection into the hemipelvis with iopamidol-370 contrast was performed under anesthesia with dynamic CT images acquired using a 320-detector row scanner (Aquilion One, Toshiba Medical, Japan). Human CD34+ and swine BM MNCs were labeled with Zirconium-89 (^89Zr), and were then assessed for viability, cell number, and the level of cellular radioactivity.

Data set [2] in a line: PET/CT in vivo distribution of radioactivity after IV, IB or intra-arterial administration in swine. More on the design: species or system domestic swine (Sus scrofa domesticus). As to the method:
Animals were heparinzed to an ACT of 300 seconds or greater and were started with deferoxamine IV infusion (5 mg/kg/hr) to chelate any free ^89Zr that may potentially be released from fragmented cells. PET scans were performed using a Gemini TF clinical PET/CT scanner (Philips Medical Systems, Andover, Mass.). Following injection, animals were imaged in 3-dimensional (3D) time-of-flight mode with a spatial resolution of 4.8 mm at the center of the field of view. The images were reconstructed using the default row-action maximum-likelihood algorithm iterative reconstruction, with standard corrections for random, scatter, attenuation, and normalization. Three volumes of interest (VOI) were manually drawn within the swine PET/CT scans. One VOI enclosing the intra-pelvic bone volume near the injection site, another VOI enclosing the extra-pelvic bone volume and the last VOI for the lung volume. The sum of measured activities of the three volumes equals the total injected radioactivity into the swine. Thus, the percent-injected dose (% ID) within each VOI was estimated by dividing each VOI by the sum of the three VOIs and multiplying by 100. The percent-injected dose for each of the three regions is reported herein.

The mark [3] stands for this setting: Control group, IB injection without cells, pig 32590, after the first hour.

In the case of `C[C@H](O)C(=O)Nc1c(I)c(C(=O)NC(CO)CO)c(I)c(C(=O)NC(CO)CO)c1I` [iopamidol-370 contrast, iopamidol-370], the “Contrast distribution on CT” value in data set [1] (IB injection at rates exceeding 0.2 ml/s, volumes >10 ml, or by hand) is listed as “extrabone contrast leakage at the site of injection”. In data set [1] (manual sequential hand intra-bone injection of 5 ml aliquots at two sites in the ipsilateral iliac crest), the “Contrast distribution on dynamic CT” value is listed as “leakage from the initial access site after the first injection as well as immediate drainage into the ipsilateral iliac vein”.

Turning to ^89Zr-deferoxamine [^89Zr-Df], in data set [2] (setting [3]), the “Extra-pelvic bone VOI (Max)” value was 91.45, the “Extra-pelvic bone VOI (Mean)” value amounted to 15.32, the “Intra-pelvic bone % ID” value stood at 33.5 % ID and the “Intra-pelvic bone VOI (Max)” value is listed as 338.9. Moreover, in data set [2] (setting [3]), the “Intra-pelvic bone VOI (Mean)” value turned out to be 314.42, the “Intra-pelvic bone total radioactivity” value is listed as 1085.85 counts, the “Lung % ID” value came to 0.0% ID and the “Lung VOI (Mean)” value is recorded as 0. In addition, the Lung total radioactivity in data set [2] (setting [3]) is on record as 0 counts. For the same compound, the “Intra-pelvic bone % ID” value in data set [2] (Control group, IB injection without cells, pig 32590, after the first hour, listed as 89Zr—Df) is recorded as 33.5% ID. The “Location of radioactivity, fusion PET/CT” value in data set [2] (IB injection without cells, 1 hr) is “radioactivity in the renal pelvises and bladder”. For the same compound, the “Radioactivity within the renal collecting system, ureters and bladder” value in data set [2] (IB injection without cells, first hour) turned out to be 66.5 % ID. The Excretion of radioactivity result in data set [2] (IV injection without cells) is listed as “rapid renal excretion”. In addition, the “Retention in the lungs” value in data set [2] (IV or IB administration without cells, first hour) was “no retention”.
